# Measured values taken from patent US12545654B2 (STEMSYNERGY THERAPEUTICS, INC., priority 2020, dated 2026).
# pEC50: −log10 of the molar value.
# Tested on: N-myc protein
# Experiment: In-cell immunostaining assay for decrease of N-myc protein level in neuroblastoma cells
# Format: cell-based
# Settings: human neuroblastoma cell lines (Kelly, IMR32, SK-N-BE(2)); treated overnight or up to 3 days; N-myc signal normalized over total protein; read-out: Activity (EC50 for decreasing N-myc protein level)
# Protocol: Human neuroblastoma cell lines were obtained from either Millipore Sigma, St. Louis, MO (Kelly cells) or American Type Culture Collection, Manassas, VA (IMR32 and SK-N-BE(2) cells). Cells were cultured in RPMI1640 medium (Corning, New York, NY), supplemented with 10% fetal bovine serum, 100 unit/mL penicillin and 100 μg/mL streptomycin (Corning, New York, NY) at 37 degree Celsius with 5% CO2 in air atmosphere. Cells cultured in flat clear bottom, black 96-well plates (Corning, New York, NY) were treated with different concentrations of a compound of the invention, which was dissolved in the culture media (200 μL/well), overnight or up to 3 days. Cells were fixed with 4% paraformaldehyde (in Phosphate-Buffered Saline or PBS, 100 μL/well) for 30 minutes at room temperature. Cells were briefly washed three times with PBS afterwards, and then treated with PBS containing 0.1% Triton X-100 (100 μL/well) for 30 minutes at room temperature. For […], cells were further treated with PBS containing 0.01% IRDye 700DX NHS Ester (LI-COR Biosciences, Lincoln, NE. 100 μL/well) for 30 minutes at room temperature. Cells were again washed three times with PBS, and then treated with a Tris-buffered saline solution with 0.1% Tween 20 (TBST) and 5% non-fat milk (50 μL/well) for 1 hour at room temperature. Cells were then treated with TBST with 5% non-fat milk (50 μL/well) containing a mouse anti N-Myc antibody (Clone B8.4.B, 1:500 dilution, Santa Cruz Biotechnology, Santa Cruz, CA), or a combination of a rabbit anti-Histone H3 (phospho S10) antibody (Clone EPR17246, 1:10000 dilution, abcam, Cambridge, MA) and a mouse anti-Histone H3 antibody (Clone 1G1, 1:250 dilution, Santa Cruz Biotechnology, Santa Cruz, CA) overnight at 4 degree Celsius in the dark. Cells were washed three times with TBST, and then treated with TBST with 5% non-fat milk (50 μL/well) containing an IRDye 800CW donkey anti-mouse IgG antibody (1:1000 dilution, LI-COR Biosciences, Lincoln, NE) for N-myc staining, or IRDye® 800CW donkey anti-rabbit IgG and IRDye 680RD donkey anti-mouse IgG antibodies (1:1000 dilution, LI-COR Biosciences, Lincoln, NE) for Histone H3 (phospho S10) and Histone H3 staining, incubated for 1 hour at room temperature in the dark. Cells were then washed four times with TBST and the plate was scanned using an Odyssey 9120 Imaging System (LI-COR Biosciences, Lincoln, NE). Signals for N-myc, total protein, Histone H3 (phospho S10), and Histone H3 were obtained from the images using the ImageStudio software (Version 4.0.21, LI-COR Biosciences, Lincoln, NE). Normalized signals for N-myc (over total protein), and Histone H3 (phospho S10) (over Histone H3) were plotted in Prism 7 software (GraphPad Software, San Diego, CA). A four-parameter dose-response curve was fitted using a variable slope model and the EC50 was calculated in Prism 7 software (GraphPad Software, San Diego, CA).
row,Compound,pEC50
1,"Cc1nc(NC(=O)C2(C(=O)Nc3ccc(F)cc3)CC2)sc1C(=O)Nc1cc(C(F)(F)F)ccc1Cl [SSTA-0152, N-(5-((2-chloro-5-(trifluoromethyl)phenyl)carbamoyl)-4-methylthiazol-2-yl)-N-(4-fluorophenyl)cyclopropane-1,1-dicarboxamide]",6.00 to 6.60
2,"Cc1nc(NC(=O)C2(C(=O)Nc3ccc(F)cc3OC(C)C)CC2)sc1C(=O)Nc1cc(C(F)(F)F)ccc1Cl [SSTA-0242, N-(5-((2-chloro-5-(trifluoromethyl)phenyl)carbamoyl)-4-methylthiazol-2-yl)-N-(4-fluoro-2-isopropoxyphenyl)cyclopropane-1,1-dicarboxamide]",< 6.00
3,O=C(Nc1cccc(C(F)(F)F)c1)c1sc(NC(=O)C2(C(=O)Nc3ccc(F)cc3)CC2)nc1-c1ccccc1,< 6.00
4,"O=C(Nc1cc(C(F)(F)F)ccc1Cl)c1sc(NC(=O)C2(C(=O)Nc3ccc(F)cc3)CC2)nc1C1CC1 [SSTA-0218, N-(5-((2-chloro-5-(trifluoromethyl)phenyl)carbamoyl)-4-cyclopropylthiazol-2-yl)-N-(4-fluorophenyl)cyclopropane-1,1-dicarboxamide]",6.00 to 6.60
5,"N-(5-((2-chloro-5-(trifluoromethyl)phenyl)carbamoyl)-4-methylthiazol-2-yl)-N-(3-fluoro-5-(trifluoromethyl)phenyl)cyclopropane-1,1-dicarboxamide [SSTA-0233]",6.00 to 6.60
6,"COc1cc(NC(=O)C2(C(=O)Nc3nc(C)c(C(=O)Nc4cc(C(F)(F)F)ccc4Cl)s3)CC2)cc(C(F)(F)F)c1 [SSTA-0234, N-(5-((2-chloro-5-(trifluoromethyl)phenyl)carbamoyl)-4-methylthiazol-2-yl)-N-(3-methoxy-5-(trifluoromethyl)phenyl)cyclopropane-1,1-dicarboxamide]",6.00 to 6.60
7,"O=C(Nc1cc(C(F)(F)F)ccc1Cl)c1sc(NC(=O)C2(C(=O)Nc3cc(F)cc(F)c3)CC2)nc1C1CC1 [SSTA-0263, N-(5-((2-chloro-5-(trifluoromethyl)phenyl)carbamoyl)-4-cyclopropylthiazol-2-yl)-N-(3,5-difluorophenyl)cyclopropane-1,1-dicarboxamide]",> 6.60
